# Data taken from patent publication US10987327B2, “Method for preventing or treating autism spectrum disorders by benzoic acid salt” (EXCELSIOR PHARMATECH LABS, priority 2017, dated 2021).
# Several values for one entry are separate records, joined by “and”; a condition that tells them apart may be missing. Equal entries are not always repeated. Entries after “also recorded” stand apart in the source; their conditions may differ.
# Legend:
# children with ASD [1] = test: Safety observations (activity level, sleep) in the 12-week open label trial; type: in vivo, human; conditions: for Sleep: child C first 3 days of benzoate usage, child D, child E; for Activity level (untoward activating effect): child D at final assessment, child E in the first two weeks, returned to baseline one month later
# Description: The present disclosure examined the efficacy and safety of sodium benzoate, a D-amino acid oxidase inhibitor, for the treatment of an autism spectrum disorder.
# (§1) This study was a twelve-week open label trial with the aim of gaining experience with sodium benzoate for the treatment of non-communicative children with ASDs. The participants were a convenient sample of outpatients children recruited from the Department of Pediatrics, Kaohsiung Medical University Hospital, Taiwan.
# (§2) Six children, including five boys and 1 child with ages between 3-year-7-month to 9-year-10-month old, were assigned to receive a 12-week treatment of sodium benzoate. For children with a body weight equal or more than 15 kg, benzoate was given with 500 mg/day. For children with a body weight less than 15 kg, benzoate was given with 250 mg/day. Sodium benzoate was provided by Excelsior Pharmatech Labs (Taiwan).
# (§3) All the children entering this study also started to receive communication training using the Core Vocabulary Communication System—Chinese version (the Unlimiter Assistive Technology Engineering Lab, Taiwan). Parents were required to teach their children 40 minutes per day at home using this System. During the 12-week period, the parents were required to bring children back the hospital every 2 weeks. At the baseline and the final (12 weeks) visit, the following assessments were arranged.
# children with ASD [2] = test: Clinical Global Impression-Improvement Scale (CGI-I) and clinicians' conclusion, 12-week open label trial; type: in vivo, human; conditions: for Clinicians' conclusion on improvement of the individual child (text): after 12 weeks, b64-b69 = child A-F in order
# Description: (§4) Six children with ASD were treated with 250 to 500 mg/day of sodium benzoate for 12 weeks. At the baseline and the final (12 weeks) visit, the assessments of receptive and expressive vocabulary test (REVT), core vocabularies gained in the core vocabulary communication system, Chinese child developmental inventory, adaptive behavior assessment system-II (ABAS-II), parenting stress index (PSI), clinical global impression-improvement scale (CGI-I) were arranged.
# as §1, §2, §3
# The CGI-I is an observer-rated scale that measures the global improvement of illness as compared to condition at admission to the trial (Guy, 1976).
# children with ASD [3] = test: Adaptive Behavior Assessment System-II (ABAS-II), 12-week open label trial; type: in vivo, human; conditions: sodium benzoate 250 to 500 mg/day, 12 weeks, c2-c7 = child A-F
# Description: as §4, §1
# Six children, including five boys and 1 child with ages between 3-year-7-month to 9-year-10-month old, were assigned to receive a 12-week treatment of sodium benzoate. For children with a body weight equal or more than 15 kg, benzoate was given with 500 mg/day. […]
# The ABAS-II is an individually administered, norm-referenced measure of adaptive behaviors (Harrison and Oakland, 2003). […] A Global Adaptive Composite (GAC) score is calculated from all nine skill area scores and presented as a norm-referenced standard score. Results were recorded by the pre- and post-GAC score and Social score.
# children with ASD [4] = test: Parenting Stress Index-Chinese version (PSI), 12-week open label trial; type: in vivo, human; conditions: sodium benzoate 250 to 500 mg/day, 12 weeks; * = above 85 percentile; c2-c7 = child A-F; Pre-Tx A-F: 70, 97.5, 99, 99, 69, 50
# Description: as §4, §1
# Six children, including five boys and 1 child with ages between 3-year-7-month to 9-year-10-month old, were assigned to receive a 12-week treatment of sodium benzoate. For children with a body weight equal or more than 15 kg, benzoate was given with 500 mg/day. For children with a body weight less than 15 kg, benzoate was given with 250 mg/day. […]
# Primary caregiver filled out the Chinese version of the parenting stress index (Wen, 2003) which was a validated Chinese version of the original questionnaire developed by Abdin (Abidin, 1986) that measured aspects of parental functioning. […]
# [5] = test system: early-phase Alzheimer disease; conditions: prior trial; cited from earlier work
# schizophrenia = conditions: prior trial; cited from earlier work
structure (smiles),measurement,setting,value
O=C([O-])c1ccccc1.[Na+] [sodium benzoate],Sleep,children with ASD [1],sleep pattern was unaltered
same,Sleep,children with ASD [1]; listed as benzoate,not able to fall asleep at their usual sleep time
same,Activity level (untoward activating effect),children with ASD [1],activity level became even higher; also recorded: activity level increased
same,Activity level (untoward activating effect),children with ASD [1]; listed as benzoic acid salt,untoward activating effect
same,Clinicians' conclusion on improvement of the individual child (text),children with ASD [2],much improved; also recorded: no improvement; also recorded: minimally improved
same,Clinicians' conclusion on improvement of the individual child (text),children with ASD [2]; listed as benzoate,minimal improvement
same,Overall effect in teaching of communication skill as observed by the parents and clinicians,"children with ASD [2]; six children, 12 weeks",beneficial effects
same,Participants judged to be much improved,"children with ASD [2]; six children, 12 weeks, child A, B, E",Half of the participants
same,CGI: Clinical Global Impression-Improvement,"children with ASD [2]; sodium benzoate 250 to 500 mg/day, 12 weeks, c2-c7 = child A-F",much ((2) much improved); also recorded: mini-; also recorded: nil ((4) no change)
same,"ABAS-S: Parental reported Social Score, Post-Tx","children with ASD [3]; Pre-Tx A-F: 71, 51, 57, 61, 46, 45",77 and 51 and 50 and 44 and 46 and 45
same,"ABAS-GCS: Parental reported General Adaptive Composite Score, Post-Tx","children with ASD [3]; Pre-Tx A-F: 77, 60, 47, 53, 50, 58",77 and 61 and 46 and 49 and 53 and 57
same,"PSI % (parenting stress index, derived raw-to-percentile score), Post-Tx",children with ASD [4],62% and 93* % and 99* % and 99.9* % and 75% and 72%
same,"Clinical symptoms, neurocognitive ability and quality of life",[5],Significant improvements
same,"Clinical symptoms, neurocognitive ability and quality of life",schizophrenia,Significant improvements
